Measured values reported in patent US11661418B2, “MASP-2 inhibitors and methods of use” (Omeros Corporation, priority 2019, dated 2023).

Target: MASP-2 (CCP1-CCP2-SP) (Homo sapiens (Human), UniProt O00187)
Experiment: Enzymatic Assay for MASP-2 (fluorogenic substrate)
Type: biochemical
Details: fluorogenic substrate based on C2 cleavage site; room temperature; 20 mM HEPES pH 7.4, 140 mM NaCl, 0.1% Tween 20; 20 min
Description: The MASP-2 assay utilizes a fluorogenic substrate, based on the cleavage site for its natural substrate C2. The assay is run at room temperature in an assay buffer containing 20 mM HEPES, pH 7.4, 140 mM NaCl and 0.1% Tween 20. Assay parameters are adjusted such that the assay is linear with respect to time, enzyme, and substrate concentrations. Under these optimized assays conditions, IC50 values are equivalent to Ki values, except in a few cases of “tight binding” inhibitors. Cases of “tight binding” or possible “slow binding” inhibitors are handled by the methods described in Copeland R.A. (2013) Evaluation of Enzyme Inhibitors in Drug Discovery. 2nd Ed., John Wiley and Sons, Inc., Chapters 5-7.
The MASP-2 assay protocol is carried out as follows. Test compounds are serially diluted in DMSO and then 100 nL of each dilution is transferred to the assay plate(s). 10 μL of Assay Buffer is added, followed by 15 μL of Enzyme MASP-2 (CCP1-CCP2-SP) in Assay Buffer. 15 μL of Substrate in Assay Buffer is then added and mixed to start the reactions. After 20 min at room temperature, 15 μL of a stop solution (0.1 M acetic acid) is added, mixed and the plates are read on a SpectraMax i3x Microplate Reader and exported as Excel files. Each assay plate included a “no inhibitor” (DMSO Only) control, a “no enzyme” control and a reference inhibitor control. % Activity values=100*(average test comp. fluorescence−average “no enzyme” fluorescence)/(average “DMSO only” fluorescence−average “no enzyme” fluorescence). IC50 and Ki values are very reproducible, falling well within 2-fold.

Chain of MASP-2 (CCP1-CCP2-SP) (O00187 445-686): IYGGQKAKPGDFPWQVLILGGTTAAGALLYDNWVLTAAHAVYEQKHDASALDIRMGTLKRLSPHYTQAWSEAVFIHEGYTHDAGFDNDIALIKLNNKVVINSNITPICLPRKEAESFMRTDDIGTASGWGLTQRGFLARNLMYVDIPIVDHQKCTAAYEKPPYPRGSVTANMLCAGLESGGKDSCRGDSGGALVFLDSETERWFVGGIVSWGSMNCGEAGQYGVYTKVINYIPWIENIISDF
Chain of MASP-2 (CCP1-CCP2-SP) (O00187 287-444 partner): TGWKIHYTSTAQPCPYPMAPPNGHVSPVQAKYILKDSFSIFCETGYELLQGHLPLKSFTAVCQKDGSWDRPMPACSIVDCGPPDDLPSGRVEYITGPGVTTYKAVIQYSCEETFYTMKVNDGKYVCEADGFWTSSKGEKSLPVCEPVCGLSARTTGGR

Ki [nM] | SMILES
< 500 | CC(C)[C@H](N)C(=O)O/N=C(\N)c1ccc(CNC(=O)[C@H](C)NC(=O)[C@H]2C[C@@H](c3ccccc3)CCN2)cc1 [Compound I-7, (2R,4S)—N—((S)-1-((4-((Z)—N′-((L-valyl)oxy)carbamimidoyl)benzyl)amino)-1-oxopropan-2-yl)-4-phenylpiperidine-2-carboxamide]
< 500 | C[C@H](NC(=O)[C@H]1C[C@@H](c2ccccc2)CC[N+]1(C)C)C(=O)NCc1ccc(C(=N)N)cc1 [Compound I-10, (2R,4S)-2-(((S)-1-((4-carbamimidoylbenzyl)amino)-1-oxopropan-2-yl)carbamoyl)-1,1-dimethyl-4-phenylpiperidin-1-ium 2,2,2-trifluoroacetate]
< 500 | CCOC(=O)CCN1CC[C@H](c2ccccc2)C[C@@H]1C(=O)N[C@@H](C)C(=O)NCc1ccc(C(=N)N)cc1 [Compound I-13, ethyl 3-((2R,4S)-2-(((S)-1-((4-carbamimidoylbenzyl)amino)-1-oxopropan-2-yl)carbamoyl)-4-phenylpiperidin-1-yl)propanoate]
< 500 | C[C@H](NC(=O)[C@H]1C[C@@H](c2ccccc2)CCN1CCC(=O)O)C(=O)NCc1ccc(C(=N)N)cc1 [Compound I-14, 3-((2R,4S)-2-(((S)-1-((4-carbamimidoylbenzyl)amino)-1-oxopropan-2-yl)carbamoyl)-4-phenylpiperidin-1-yl)propanoic acid]
< 500 | C[C@H](NC(=O)[C@H]1C[C@@H](c2ccccc2)CCN1CCP(=O)(O)O)C(=O)NCc1cc2cnccc2[nH]1 [Compound I-15, (2-((2R,4S)-2-(((S)-1-(((1H-pyrrolo[3,2-c]pyridin-2-yl)methyl)amino)-1-oxopropan-2-yl)carbamoyl)-4-phenylpiperidin-1-yl)ethyl)phosphonic acid]
< 500 | Cc1nc(N)ccc1CNC(=O)[C@@H]1CCN1C(=O)[C@H]1C[C@@H](c2ccccc2)CCN1C [Compound I-16, (S)—N-((6-amino-2-methylpyridin-3-yl)methyl)-1-((2R,4S)-1-methyl-4-phenylpiperidine-2-carbonyl)azetidine-2-carboxamide]
< 500 | CN1CC[C@H](c2ccccc2)C[C@@H]1C(=O)N1CC[C@H]1C(=O)NCc1ccc(C(=N)N)cc1 [Compound I-17, (S)—N-(4-carbamimidoylbenzyl)-1-((2R,4S)-1-methyl-4-phenylpiperidine-2-carbonyl)azetidine-2-carboxamide]
500 to 2500 | N=C(NC(=O)OCc1ccccc1)c1ccc(CNC(=O)[C@@H]2CCN2C(=O)[C@H]2C[C@@H](c3ccccc3)CCN2)cc1 [Compound I-19, benzyl (imino(4-(((S)-1-((2R,4S)-4-phenylpiperidine-2-carbonyl)azetidine-2-carboxamido)methyl)phenyl)methyl)carbamate]
2500 to 10000 | CCN1CC[C@H](c2ccccc2)C[C@@H]1C(=O)N[C@@H](C)C(=O)NCc1ccc(C(=N)NC(=O)OCc2ccccc2)cc1 [Compound I-20, benzyl ((4-(((S)-2-((2R,4S)-1-ethyl-4-phenylpiperidine-2-carboxamido)propanamido)methyl)phenyl)(imino)methyl)carbamate]
< 500 | CCN1CC[C@H](c2ccccc2)C[C@@H]1C(=O)N[C@@H](C)C(=O)NCc1ccc(C(=N)N)cc1 [Compound I-21, (2R,4S)—N—((S)-1-((4-carbamimidoylbenzyl)amino)-1-OXOPROPAN-2-yl)-1-ethyl-4-phenylpiperidine-2-carboxamide]
< 500 | CCN1CC[C@H](c2cccc(-n3cccn3)c2)C[C@@H]1C(=O)N[C@@H](C)C(=O)NCc1cc(Cl)ccc1-n1cnnn1 [Compound I-22, (2R,4S)-4-(3-(1H-pyrazol-1-yl)phenyl)-N—((S)-1-((5-chloro-2-(1H-tetrazol-1-yl)benzyl)amino)-1-oxopropan-2-yl)-1-ethylpiperidine-2-carboxamide]
< 500 | C[C@H](NC(=O)[C@H]1C[C@@H](c2ccccc2)CCN1)C(=O)NCc1ccc(/C(N)=N/O)s1 [Compound I-24, (2R,4S)—N—((S)-1-(((5-((Z)—N-hydroxycarbamimidoyl)thiophen-2-yl)methyl)amino)-1-oxopropan-2-yl)-4-phenylpiperidine-2-carboxamide]
500 to 2500 | C[C@H](NC(=O)[C@H]1C[C@@H](c2ccccc2)CCN1)C(=O)NCc1ccc(/C(N)=N/O)cc1 [Compound I-31, (2R,4S)—N—((S)-1-((4-((Z)—N′-hydroxycarbamimidoyl)benzyl)amino)-1-oxopropan-2-yl)-4-phenylpiperidine-2-carboxamide]
